Test results: patent US20040013649A1, “Cancer vaccines and methods of using the same” (Inex Pharmaceuticals Corporation, priority 2002, published 2004)
Entries after “also recorded” stand apart in the source; their conditions may differ.

Experiments:
[1] = system: IL-12, IL-6, IFN-γ and MCP-1; assay: plasma cytokine levels after i.v. injection; assay type: in vivo, ICR mice; details: for stimulation of plasma IL-6, IL-12, IFN-γ and MCP-1: encapsulated in DSPC:Chol:DODAP:PEG-CER14 20:45:25:10, i.v.
Description: As noted above, with non-lipid encapsulated oligonucleotides the backbone is traditionally modified so as to reduce molecular degradation by nucleases. However, on encapsulation, such a modification is no longer required to prevent degradation. To establish the effect of a different phosphate backbone on cytokine stimulation induced by lipid encapsulation, mice were injected with oligonucleotides having both PO and PS backbones, and cytokine stimulation was measured over a series of points in time (as shown in FIG. 6 and 7B) and over a sliding dosage scale as shown in FIG. 7A. In this experiment ICR mice were injected i.v. with a 20 mg ODN/kg dose of free PO ODN1, encapsulated PO-ODN1 and encapsulated PS-ODN1. […] Cytokine stimulation is generally indicative of a cellular immune response as is a chemokine response in MCP-1. Oligonucleotides were encapsulated in a lipid particle composed of DSPC:Chol:DODAP:PEG-CER14 in a ratio of 20:45:25:10.

[2] = system: leukocytes bearing the activation marker CD69; assay: in vitro stimulation of CD69 on leukocytes in mouse whole blood; assay type: cell-based; details: oligonucleotide encapsulated in POPC:CHOL:DODMA:PEGDMG 20:45:25:10
Description: (§1) CD69 is a cell activation marker, which quantifies the activation of NK cells, B cells and monocytes. Expression of CD69 on NK cells indicates cell activation and production of IFN-γ, which is important to inducing a Th-1 immune response. Free and encapsulated ODN1 and 2 were tested in vitro and in vivo for their ability to induce CD69 expression. A dose of 0.1 mg/ml of ODN2 and 10 mg/ml ODN1 were used in vitro and 10 mg/kg of ODN2 and 20 mg/kg of ODN1 in vivo. Each oligonucleotide was encapsulated in a lipid particle composed of POPC:CHOL:DODMA:PEGDMG in a ratio of 20:45:25:10.
FIG. 1 illustrates the in vitro stimulation of leukocytes bearing the activation marker CD69 from treating mouse whole blood with free oligonucleotides and encapsulated oligonucleoties, specifically ODN1 and 2. When mouse whole blood was treated in vitro with free oligonucleotides there was a dose responsive increase in the amount of CD69 positive B-cells, monocytes and to some extent, NK cells, according to the amount of free oligonucleotide used 15 hours after treatment. […] However, when these same oligonucleotides were encapsulated in a lipid vesicle, the in vitro stimulation of CD69 production on these same cell types was reduced or abolished altogether.

E.G7-OVA [3] = assay: prophylactic efficacy of OVA / OVA257-264 vaccination, E.G7-OVA model; assay type: in vivo, C57/BL6 mice; set-up: anti-tumor activity / antigen specific efficacy / adjuvant activity following prophylactic vaccination: dose or concentration left out as unconfirmed; details: for efficacy of ODN sequences: LNA (encapsulated) forms, FIG. 35; for antigen specific efficacy / adjuvant activity following prophylactic vaccination: free or encapsulated ODN 1 mixed with OVA or OVA257-264, SC; for prophylactic effect on tumor growth: OVA257-264 peptide, LNA containing ODN 30 (PO), SC for 2 weeks, FIG. 31; for anti-tumor activity: antigen alone, once weekly vaccination, 2 injections
Description: Vaccinations. B6 mice were vaccinated subcutaneously (SC) with […] per injection. Dosing schedules were either q7dx2 or q4dx4 and are indicated in the individual figure legends. CFA mixtures were very viscous and had to be given with a larger gauge syringe. For humoral studies, a prime (day 0) and boost (day 14) strategy was used and blood samples were collected at various times by tail nicking.
Efficacy studies. E.G7-OVA or EL-4 thymoma cell lines were used throughout the study. These cells were cultured in vitro according to established methods. For tumor studies, 2.5×106 E.G7-OVA cells were injected subcutaneously in […] of PBS containing 1% FCS. Tumor measurements were made by repeated perpendicular measurements of tumor dimensions and using the formula: […]
Full-length OVA and the immunodominant cytotoxic T lymphocyte (CTL) peptide epitope (OVA257-264) were used to evaluate cell mediated immune responses and the prophylactic and therapeutic efficacy of OVA vaccination against the E.G7-OVA transfected cell line, using LNA both as an adjuvant and as the basis for a cancer vaccine formulation. LNA formulations for this experiment were prepared using DSPC:Chol:DODAP:PEGCer14 at a ration of 25:45:20:10
The anti-tumor activity of OVA and OVA257-264 were examined against the murine thymoma cell line, E.G7-OVA, implanted subcutaneously (SC) in C57/BL6 mice. […] Given the activity observed with the protein or peptide alone, this dose and schedule represents a useful model to evaluate adjuvants designed to boost the immune response against OVA and/or OVA257-264.
To examine LNA formulations as adjuvants, the impact of three variables were evaluated on vaccination and efficacy in the prophylactic E.G7-OVA model: (1) the activity of free vs. encapsulated ODN 1, (2) phosphodiester (PO) vs phosphorothioate (PS) ODN, and (3) full-length OVA protein vs single-epitope peptide OVA257-264 (FIGS. 30A and B). In this set of studies, free and encapsulated ODN 1 was simply mixed with antigen and administered SC near the nape of the neck. ODN and antigen doses in these studies were […], respectively.

B16 cells = assay: TRP-2 peptide vaccination, B16 pulmonary metastases; assay type: in vivo, mice; details: SC weekly ×3, then B16 cells IV
Description: TRP-2 and gp100 studies were conducted using the B16/BL6 murine melanoma model. B16 cells (1.0×105) were injected IV in a volume of […]. Typically, animals were vaccinated weekly for 2-3 injections and B16 cells were then administered 1-2 days after the final vaccination. Animals were terminated between days 14-18 post-B16 injection, lungs were removed, and metastases were counted using a stereomicroscope.
TRP-2 peptide was mixed with various adjuvant formulations and was administered SC weekly (×3), followed by an IV administration of B16 cells, which aggressively seed to the lung to form numerous micro metastases. […] CFA is a balanced Th1/Th2 and gave a modest response (mean=46), consistent with the E.G7-OVA studies.

dendritic cells = assay: expansion of dendritic cells (CD11c, DEC205) in spleen, blood and lymph nodes; assay type: in vivo, ICR mice; details: lipid encapsulated; single i.v. injection 20 mg/kg; versus PBS control = 100%
Description: ICR mice were immunized with a single intravenous injection of encapsulated oligonucleotides at a dose of 20 mg/kg and the control ICR mouse was injected with PBS. […] Each of these markers are specific to dendritic cells though they may represent different cell sub-populations. In each of FIGS. 4 and 5 the control was plotted as equivalent to 100% and the effect of ODN1m for each backbone configuration was plotted as a percentage of that control.

[4] = system: leukocytes bearing the activation marker CD69; assay: in vivo stimulation of the CD69 marker after injection; set-up: species or system ICR mice; details: lipid encapsulated oligonucleotide; 10 mg/kg ODN2, 20 mg/kg ODN1; 16 and 24 hours after injection
Description: as §1
When the same oligonucleotides were tested in vivo, however, surprising results were obtained. FIG. 2 illustrates that in vivo treatment of ICR mice by injection with encapsulated or free oligonucleotides produces results that are contrary to those obtained in vitro.

[5] = system: EG.7 Ova expressing tumor cells; assay: prophylactic anti-tumor efficacy, EG7-OVA tumor model, q7d×3; assay type: in vivo, C57BI/6 mice
Description: Efficacy studies. E.G7-OVA or EL-4 thymoma cell lines were used throughout the study. These cells were cultured in vitro according to established methods. […] Tumor measurements were made by repeated perpendicular measurements of tumor dimensions and using the formula: […]
Anti-tumor efficacy induced by subcutaneous immunization was assessed in C57BI/6 (5 animals per group) in a prophylactic immunization model. Mice were immunized subcutaneously with 3 injections on a q7d×3 dosing regimen on Days 0, 7 and 14 at a dose of 100 μg oligonucleotide and 20 μg of OVA antigen dose. […] Mice were monitored 3 times weekly to assess tumor growth and weight gain. Control mice were injected with one of PBS or HBS and […] of OVA antigen on the same schedule described above. Oligonucleotides were encapsulated in a lipid particle having a lipid composition of one of POPC: CHOL: DODAP:PEGCer14 or DSPC: CHOL: DODAP:PEGCer14 each in a ratio of 25:45:20:10. All comparisons of methylated and unmethylated oligonucleotides were done using like lipid particles. Results from these efficacy experiments are detailed in FIGS. 12-15, 18-21, and 25-28. Day 0 on each of the Figures is the day each animal was challenged with the tumor.

E.G7-OVA [6] = assay: therapeutic efficacy of OVA vaccination, established E.G7-OVA tumors; assay type: in vivo, B6 mice; details: treatment q4d×4 once tumors had reached ~250 mm3
Text: Currently, the clinical objective is to generate a therapeutic host immune responses that can reduce the progression of established cancers. To evaluate the effect of vaccination on therapeutic efficacy in the E.G7-OVA model, B6 mice were implanted with E.G7-OVA cells and were subsequently treated with OVA, OVA +ODN 1 or OVA +LNA/ODN 1 on a q4d×4 schedule once the tumors had reached ˜250 mm3.

[7] = TRP-2 peptide alone or mixed with free ODN or other adjuvant
[8] = encapsulated ODN (LNA) mixed with TRP-2 peptide
[9] = encapsulated form versus free at the same dose

Molecule: ODN1: 5′-TAACGTTGAGGGGCAT-3, SEQ ID NO: 2, human c-myc (tested as both phosphodiester and phosphorothioate backbone forms, lipid-encapsulated, further chemistry not given here)
- late IFN-γ peak ([1]; encapsulated PS oligonucleotides, 6 days after treatment): produced a strong IFN-γ peak; also recorded: produced an IFN-gamma peak
- stimulation of plasma IL-6, IL-12, IFN-γ and MCP-1 [1]: increased IL-12 induction
- stimulation of CD69 positive B-cells, monocytes and NK cells [2]: reduced the stimulation of CD69 on NK cells below the control level
- efficacy of ODN sequences (E.G7-OVA [3]): strongest responses
- antigen specific efficacy / adjuvant activity following prophylactic vaccination (E.G7-OVA [3]): encapsulation of ODN 1 resulted in increased antigen specific efficacy
- mean number of metastases (B16 cells; [7]): 37
- mean number of metastases (B16 cells; [8]): 6
- expansion of CD11c positive dendritic cells (dendritic cells): stimulated the expansion of CD11c positive cells in spleen and whole blood
- expansion of DEC205 positive dendritic cells (dendritic cells): stimulate the expansion of DEC205 positive cells in spleen, whole blood and lymph node
- stimulation of the CD69 marker in vivo [4]: able to stimulate production of CD69 on NK cells
- reduction in tumor growth ([5]; free ODN, 100 μg ODN + 20 μg OVA s.c. q7d×3, tumor challenge Day 21): showed a greater reduction in tumor growth than their methylated counterparts
- reduction in tumor growth ([5]; lipid encapsulated ODN, PO backbone, 100 μg ODN + 20 μg OVA s.c. q7d×3): lost its efficacy
- number of animals remaining in the study ([5]; lipid encapsulated ODN, FIG. 19B): essentially identical throughout the study

Molecule: ODN14: 5′-AACC GTT GAG GGG CAT-3′, SEQ ID NO: 14, human c-myc (AACCGTTGAGGGGCAT; tested as both phosphodiester and phosphorothioate backbone forms, lipid-encapsulated, further chemistry not given here)
- increase in IFN-γ [1, 9]: 20 fold
- increase in IL-6 [1, 9]: 1000 fold
- increase in peak plasma IL-12 [1, 9]: 2.5 fold
- stimulation of plasma IL-6, IL-12, IFN-γ and MCP-1 [1]: increased IL-12 induction

Molecule: ODN 3: 5′-TAAGCATACGGGGTGT-3, SEQ ID NO: 3; non-CpG ODN control sequence for ODN 1 (chemistry not given here)
- mean number of metastases (B16 cells; [7]): 83
- mean number of metastases (B16 cells; [8]): 23

Molecule: ODN 29: 5′-CAACGTTATGGGGAGA-3′, SEQ ID NO: 29; non-antisense version of ODN 1 (chemistry not given here)
- efficacy of ODN sequences (E.G7-OVA [3]): strongest responses

Molecule: TRP-2 peptide: immunodominant MHC class I peptide epitope of TRP-2, VYDFFVWL [reference compound]
- mean number of metastases (B16 cells; [7]): 82

Molecule: mOVA: acylated OVA257-264 peptide; modified peptide with stearoyl group at the N-terminus [reference compound]
- prophylactic effect on tumor growth (E.G7-OVA [3]): no prophylactic effect
- anti-tumor activity (E.G7-OVA [3]): no anti-tumor activity was observed

Molecule: pOVA: immunodominant CTL peptide epitope OVA257-264 (ESIINFEK; UniProt P01012 257-264, looked up, fragment) [reference compound]
- prophylactic effect on tumor growth (E.G7-OVA [3]): no prophylactic effect
- anti-tumor activity (E.G7-OVA [3]): no anti-tumor activity was observed

B1: OVA: Hen egg albumin (ovalbumin), full-length protein, model tumor-associated antigen (protein, UniProt P01012 1-386, looked up)
chain: MGSIGAASMEFCFDVFKELKVHHANENIFYCPIAIMSALAMVYLGAKDSTRTQINKVVRFDKLPGFGDSIEAQCGTSVNVHSSLRDILNQITKPNDVYSFSLASRLYAEERYPILPEYLQCVKELYRGGLEPINFQTAADQARELINSWVESQTNGIIRNVLQPSSVDSQTAMVLVNAIVFKGLWEKAFKDEDTQAMPFRVTEQESKPVQMMYQIGLFRVASMASEKMKILELPFASGTMSMLVLLPDEVSGLEQLESIINFEKLTEWTSSNVMEERKIKVYLPRMKMEEKYNLTSVLMAMGITDVFSSSANLSGISSAESLKISQAVHAAHAEINEAGREVVGSAEAGVDAASVSEEFRADHPFLFCIKHIATNAVLFFGRCVSP
modifications: full-length
notes: Hen egg albumin (ovalbumin), full-length protein, model tumor-associated antigen
- anti-tumor activity (E.G7-OVA [3]): Anti-tumor activity was observed
- antigen specific efficacy / adjuvant activity following prophylactic vaccination (E.G7-OVA [3]): dramatically improved immune responses and efficacy
- tumor growth of established tumors (E.G7-OVA [6]): no delay in tumor growth
